{"source": "patent US10016430B2", "about": "“1-[2-(aminomethyl)benzyl]-2-thioxo-1,2,3,5-tetrahydro-4H-pyrrolo[3,2-d]pyrimidin-4-ones as inhibitors of myeloperoxidase” (AstraZeneca AB, priority 2014, dated 2018)", "molecular_target": "activated MPO (Homo sapiens (Human), UniProt P05164)", "sequence (P05164 49-745)": "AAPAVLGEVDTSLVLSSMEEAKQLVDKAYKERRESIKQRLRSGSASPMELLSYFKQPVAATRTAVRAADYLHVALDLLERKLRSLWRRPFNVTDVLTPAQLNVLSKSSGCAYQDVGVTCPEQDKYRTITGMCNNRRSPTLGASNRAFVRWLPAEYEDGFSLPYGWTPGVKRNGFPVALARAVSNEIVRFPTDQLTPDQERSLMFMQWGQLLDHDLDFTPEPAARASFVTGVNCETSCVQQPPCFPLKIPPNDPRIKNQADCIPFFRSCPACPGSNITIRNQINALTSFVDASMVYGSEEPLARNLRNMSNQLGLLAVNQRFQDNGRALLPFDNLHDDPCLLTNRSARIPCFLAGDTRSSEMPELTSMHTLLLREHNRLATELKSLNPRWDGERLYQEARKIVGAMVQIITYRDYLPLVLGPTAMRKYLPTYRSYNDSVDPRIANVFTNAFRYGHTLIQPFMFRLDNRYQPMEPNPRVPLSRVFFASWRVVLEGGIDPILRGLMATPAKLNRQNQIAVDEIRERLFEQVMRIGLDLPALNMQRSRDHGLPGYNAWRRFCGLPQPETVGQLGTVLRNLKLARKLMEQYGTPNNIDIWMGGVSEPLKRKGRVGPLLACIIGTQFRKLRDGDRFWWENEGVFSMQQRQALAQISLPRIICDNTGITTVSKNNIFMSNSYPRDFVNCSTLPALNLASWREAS", "assay": "Urate production by activated MPO incubated with xanthine, LC-MS", "assay_type": "biochemical", "conditions": "activated MPO incubated with xanthine and titrated compound for 80 min, FIG. 3", "description": "The dotted line represents the urate formed in the presence of unactivated MPO.\nWe postulate that tissue hypoxia, the degree of which will be determined by the degree of inflammation and vascular function, has impact on plasma urate concentration. Myocardial ischemia results in accelerated loss of ATP and a corresponding buildup of urate levels in rat hearts (Am. J. Physiol. Heart Circ. Physiol., 2004, 286, H677-H684; J. Biol. Chem., 1995, 270, 18797-18803). Furthermore, increased myocardial production of urate contributes to systemic urate levels and correlates to NYHA class in heart failure patients (Circ. J., 2006, 70, 1006-1011)."}
{"smiles": "C[C@@H](N)c1cc(Cl)ccc1Cn1c(=S)[nH]c(=O)c2[nH]ccc21", "note": "[Example 3, 1-{2-[(1R)-1-Aminoethyl]-4-chlorobenzyl}-2-thioxo-1,2,3,5-tetrahydro-4H-pyrrolo[3,2-d]pyrimidin-4-one]", "values": [{"measurement": "Inhibition of urate production by activated MPO", "result": "concentration-dependently inhibited"}]}
